In ChEMBL document CHEMBL1122199, “Structure-activity relationships in potentially hallucinogenic N,N-dialkyltryptamines substituted in the benzene moiety” (J Med Chem, 1982):
Values joined by “and” are separate entries in the source; they are usually repeats but may differ in a detail not shown here. Equal values may be shown once.

How the values were obtained:
Rattus norvegicus [1] = assay: The behavior disruption data as percent change in response from drug versus saline at dose 0.5 mg/Kg, expressed as E (efficient); format: functional
Rattus norvegicus [2] = assay: The behavior disruption data as percent change in response from drug versus saline at dose 1mg/Kg, expressed as E (efficient); format: functional
[3] = Hill coefficient of the compound
Rattus norvegicus [4] = assay: The behavior disruption data as percent change in response from drug versus saline at dose 4 mg/kg, expressed as B/P (burst/premature).; format: functional
Rattus norvegicus [5] = assay: The behavior disruption data as percent change in response from drug versus saline at dose 0.5 mg/kg, expressed as B/P (burst/premature).; format: functional
Rattus norvegicus [6] = assay: The behavior disruption data as percent change in response from drug versus saline at dose 2mg/Kg, expressed as L (Late).; format: functional
Rattus norvegicus [7] = assay: The behavior disruption data as percent change in response from drug versus saline at dose 4mg/Kg, expressed as E (efficient); format: functional
Rattus norvegicus [8] = assay: The behavior disruption data as percent change in response from drug versus saline at dose 1 mg/kg, expressed as B/P (burst/premature).; format: functional
Rattus norvegicus [9] = assay: The behavior disruption data as percent change in response from drug versus saline at dose 4mg/Kg, expressed as L (Late).; format: functional
Rattus norvegicus [10] = assay: The behavior disruption data as percent change in response from drug versus saline at dose 1mg/Kg, expressed as L (Late).; format: functional
[11] = molecular target: Serotonin (5-HT) receptor; assay: Ability to displace [3H]5-HT binding to 5-hydroxytryptamine receptor site using 1 uM LSD as masking ligand; format: protein assay, Cavia porcellus
[12] = Ability to displace [3H]LSD binding to Lysergic acid diethylamide receptor site using 1 uM 5-HT as masking ligand; design: species or system Cavia porcellus
Rattus norvegicus [13] = assay: The behavior disruption data as percent change in response from drug versus saline at dose 2mg/Kg, expressed as E (efficient); format: functional
Rattus norvegicus [14] = assay: The behavior disruption data as percent change in response from drug versus saline at dose 2mg/kg, expressed as B/P (burst/premature).; format: functional
Rattus norvegicus [15] = assay: The behavior disruption data as percent change in response from drug versus saline at dose 0.5 mg/Kg, expressed as L (Late).; format: functional
Rattus norvegicus [16] = assay: The behavior disruption data as percent change in response from drug versus saline at dose 5 mg/kg, expressed as B/P (burst/premature).; format: functional
Rattus norvegicus [17] = assay: The behavior disruption data as percent change in response from drug versus saline at dose 10mg/Kg, expressed as E (efficient); format: functional
Rattus norvegicus [18] = assay: The behavior disruption data as percent change in response from drug versus saline at dose 15mg/Kg, expressed as E (efficient); format: functional
Rattus norvegicus [19] = assay: The behavior disruption data as percent change in response from drug versus saline at dose 15mg/Kg, expressed as L (Late).; format: functional
Rattus norvegicus [20] = assay: The behavior disruption data as percent change in response from drug versus saline at dose 10 mg/kg, expressed as B/P (burst/premature).; format: functional
Rattus norvegicus [21] = assay: The behavior disruption data as percent change in response from drug versus saline at dose 15 mg/kg, expressed as B/P (burst/premature).; format: functional
Rattus norvegicus [22] = assay: The behavior disruption data as percent change in response from drug versus saline at dose 5mg/Kg, expressed as E (efficient); format: functional
Rattus norvegicus [23] = assay: The behavior disruption data as percent change in response from drug versus saline at dose 10mg/Kg, expressed as L (Late).; format: functional
Rattus norvegicus [24] = assay: The behavior disruption data as percent change in response from drug versus saline at dose 5mg/Kg, expressed as L (Late).; format: functional
Rattus norvegicus [25] = assay: The behavior disruption data as percent change in response from drug versus saline at dose 2.5 mg/kg, expressed as B/P (burst/premature).; format: functional
Rattus norvegicus [26] = assay: The behavior disruption data as percent change in response from drug versus saline at dose 2.5mg/Kg, expressed as L (Late).; format: functional
Rattus norvegicus [27] = assay: The behavior disruption data as percent change in response from drug versus saline at dose 1.25 mg/kg, expressed as B/P (burst/premature).; format: functional
Rattus norvegicus [28] = assay: The behavior disruption data as percent change in response from drug versus saline at dose 2.5mg/Kg, expressed as E (efficient); format: functional
Rattus norvegicus [29] = assay: The behavior disruption data as percent change in response from drug versus saline at dose 1.25mg/Kg, expressed as E (efficient); format: functional
Rattus norvegicus [30] = assay: The behavior disruption data as percent change in response from drug versus saline at dose 1.25mg/Kg, expressed as L (Late).; format: functional
[31] = molecular target: Serotonin (5-HT) receptor; assay: Ability to displace [3H]5-HT binding from 5-hydroxytryptamine receptor site using 1 uM LSD as masking ligand; format: protein assay, Cavia porcellus
Rattus norvegicus [32] = assay: The behavior disruption data was measured as percent change in response from drug versus saline at dose 2 mg/kg, activity expressed as L (Late).; format: functional
Rattus norvegicus [33] = assay: The behavior disruption data as percent change in response from drug versus saline at dose 8mg/Kg, expressed as E (efficient); format: functional
Rattus norvegicus [34] = assay: The behavior disruption data as percent change in response from drug versus saline at dose 8mg/Kg, expressed as L (Late).; format: functional
Rattus norvegicus [35] = assay: The behavior disruption data as percent change in response from drug versus saline at dose 8 mg/kg, expressed as B/P (burst/premature).; format: functional
Rattus norvegicus [36] = assay: The behavior disruption data as percent change in response from drug versus saline at dose 0.25 mg/kg, expressed as B/P (burst/premature).; format: functional
Rattus norvegicus [37] = assay: The behavior disruption data as percent change in response from drug versus saline at dose 0.25mg/Kg, expressed as E (efficient); format: functional
Rattus norvegicus [38] = assay: The behavior disruption data as percent change in response from drug versus saline at dose 0.25mg/Kg, expressed as L (Late).; format: functional

SMILES | Change in response (Rattus norvegicus [1]) | Change in response (Rattus norvegicus [2]) | Hill coefficient [3] | Change in response (Rattus norvegicus [5]) | Change in response (Rattus norvegicus [6]) | Change in response (Rattus norvegicus [8]) | Change in response (Rattus norvegicus [10]) | IC50 [11] | IC50 [12] | Change in response (Rattus norvegicus [13]) | Change in response (Rattus norvegicus [14]) | Change in response (Rattus norvegicus [15]) | Change in response (Rattus norvegicus [16]) | Change in response (Rattus norvegicus [22]) | Change in response (Rattus norvegicus [24]) | other results
CSc1ccc2c(CCN(C)C)c[nH]c2c1 | 8% | 13% | 0.97 and 0.57 | 4% | 19% | 8% | 4% | 0.0000408 M l-1 | 7.59e-6 M l-1 | 30% | 20% | 4% |  |  |  | Change in response (Rattus norvegicus [4]): 34%; Change in response (Rattus norvegicus [7]): 48%; Change in response (Rattus norvegicus [9]): 14%
CN(C)CCc1c[nH]c2cc3c(cc12)OCO3 |  |  | 0.95 and 1.01 |  |  |  |  | 0.0000407 M l-1 | 1.78e-6 M l-1 |  |  |  | 9% | 11% | 2% | Change in response (Rattus norvegicus [17]): 26%; Change in response (Rattus norvegicus [18]): 41%; Change in response (Rattus norvegicus [19]): 19%; Change in response (Rattus norvegicus [20]): 19%; Change in response (Rattus norvegicus [21]): 22%; Change in response (Rattus norvegicus [23]): 9%
CC(C)N(CCc1c[nH]c2cc3c(cc12)OCO3)C(C)C |  |  | 0.642 |  |  |  |  |  | 0.00001 M l-1 |  |  |  | 2% | 4% | 2% | Change in response (Rattus norvegicus [25]): 0%; Change in response (Rattus norvegicus [17]): 45%; Change in response (Rattus norvegicus [26]): 2%; Change in response (Rattus norvegicus [27]): 1%; Change in response (Rattus norvegicus [28]): 2%; Change in response (Rattus norvegicus [29]): 0%; Change in response (Rattus norvegicus [30]): 1%; Change in response (Rattus norvegicus [20]): 29%; IC50 [31]: 0.000933 M l-1; Change in response (Rattus norvegicus [23]): 16%
CSc1cccc2[nH]cc(CCN(C)C)c12 |  | 1% | 0.75 and 1.01 |  |  | 0% | 1% | 0.000151 M l-1 | 0.0000125 M l-1 | 11% | 8% |  |  |  |  | Change in response (Rattus norvegicus [4]): 20%; Change in response (Rattus norvegicus [32]): 3%; Change in response (Rattus norvegicus [7]): 27%; Change in response (Rattus norvegicus [33]): 52%; Change in response (Rattus norvegicus [9]): 6%; Change in response (Rattus norvegicus [34]): 15%; Change in response (Rattus norvegicus [35]): 36%
CC(C)N(CCc1c[nH]c2ccc3c(c12)OCO3)C(C)C |  |  | 0.343 |  |  |  |  | 2.24e-6 M l-1 | 2.88e-6 M l-1 |  |  |  |  |  |  | Change in response (Rattus norvegicus [25]): 38%; Change in response (Rattus norvegicus [26]): 11%; Change in response (Rattus norvegicus [27]): 24%; Change in response (Rattus norvegicus [28]): 49%; Change in response (Rattus norvegicus [29]): 28%; Change in response (Rattus norvegicus [30]): 74%
CSc1cccc2[nH]cc(CCN(C(C)C)C(C)C)c12 |  |  | 0.7 |  |  |  |  |  |  |  |  |  | 1% | 5% | 4% | Change in response (Rattus norvegicus [17]): 32%; Change in response (Rattus norvegicus [20]): 23%; Change in response (Rattus norvegicus [23]): 9%
COc1cccc2[nH]cc(CCN(C)C)c12 | 2% | 25% |  | 0% | 7% | 9% | 6% |  |  | 27% | 10% | 2% |  |  |  | 
COc1ccc2c(CCN(C)C)c[nH]c2c1 |  |  |  |  |  |  |  |  |  |  |  |  | 29% | 50% | 21% | Change in response (Rattus norvegicus [25]): 26%; Change in response (Rattus norvegicus [26]): 8%; Change in response (Rattus norvegicus [27]): 25%; Change in response (Rattus norvegicus [28]): 34%; Change in response (Rattus norvegicus [29]): 21%; Change in response (Rattus norvegicus [30]): 5%
CSc1ccc2[nH]cc(CCN(C)C)c2c1 | 26% | 65% | 0.91 and 0.995 | 13% |  | 16% | 49% |  | 1.44e-7 M l-1 |  |  | 7% |  |  |  | IC50 [31]: 1e-6 M l-1
CN(C)CCc1c[nH]c2ccc3c(c12)OCO3 | 5% | 10% |  | 0% | 20% | 5% | 5% |  |  | 31% | 11% | 5% |  |  |  | Change in response (Rattus norvegicus [36]): 3%; Change in response (Rattus norvegicus [37]): 3%; Change in response (Rattus norvegicus [38]): 5%
COc1ccc2[nH]cc(CCN(C)C)c2c1 [MEBUFOTENIN] |  | 11% |  |  | 9% | 6% | 5% |  |  | 26% | 19% |  |  |  |  | 
